Assay results taken from US20250243170A1, “REMIBRUTINIB DRUG SUBSTANCE AND DRUG PRODUCT SUBSTANTIALLY FREE OF NITROSAMINE IMPURITY” (NOVARTIS AG, priority 2024, published 2025).
Several values for one entry are separate records, joined by “and”; a condition that tells them apart may be missing. Identical values can stand only once. Entries after “also recorded” stand apart in the source; their conditions may differ. Blank lines part the entries; values can stand above or below the compound they belong to.

Columns and labels:
[1] = Stability of F8: nitrosamine content after 12 months storage; format: physicochemical; details: for growth of nitrosamine-content upon storage / change of nitrosamine-content upon storage: 12M; for Nitrosamine content in F8: double polyethylene-bags
Description: (§1) • Limit-test by LC-MS (SIM mode), AJS-ES, positive mode, SIM Ion: 483.2 [M+H]+ • Column: YMC-Triart C18, 100×3.0 mm, particle size 1.9 μm, 12 nm • Mobile phase A: Dissolve 0.315 g of Ammonium formate in 1000 ml of water, add 0.5 ml of formic acid • Mobile phase B: Methanol • Sample solvent: Methanol+0.2% (v/v) Formic acid • Sample solution: approx. 100 mg of the sample in 20 mL • Flow: 0.6 mL/min • Injection volume: 3 μL • Autosampler cooled, 8° C. • Column temperature. 80° C. • Gradient: […]
(§2) The impact of protective gas (nitrogen) for storage vs storage in non-protected atmosphere, of light exposed vs dark conditions and the effect of temperature was investigated. In addition, the stability study samples pulled after 12 M of storage at different temperature and humidity were included into the assessment.

[2] = Additional stress testing of F8 (inert gas, open vial, light); format: physicochemical; details: for formation of nitrosamine upon storage: several days, room temperature
Text: as §2

[3] = Stability of intermediate F8: nitrosamine content upon air exposure; format: physicochemical
Description: as §1

[4] = Accelerated predictive stability (APS) of LOU064 drug substance, open dish; format: physicochemical; details: for Nitrosamine impurity: open dish
Description: as §1, with “0.5 mL” for “0.5 ml”
A statistical based approach, Accelerated Predictive Stability (APS), using the humidity modified Arrhenius equation [Waterman and al., International Journal of Pharmaceutics 293 (1-2), 101-125 (2005)] is applied to understand stability behavior and predict the retest period. […] Short studies are conducted on open dish samples of representative batch(es) of drug substance at accelerated conditions using a wide range of temperatures and humidity with the goal of reaching the specification limit for the identified retest period limiting attributes at each condition as detailed below. […] The humidity corrected Arrhenius equation reflects both the influence of the temperature, and the moisture on the kinetics of the degradation product formation. The resulting open-dish data are fitted to a humidity-corrected Arrhenius equation^1 using ASAPprime® (current version 6.0): […]
3 batches of LOU064 drug substance were placed in open dish under the protocol summarized below:
(§3) The pulled samples were analyzed by HPLC-MS as per method described in example 1 and reported below in tables 8 and 9.

[5] = APS of LOU064 drug substance, closed vessel with or without nitrogen purge; format: physicochemical
Description: as §1, with “0.5 mL” for “0.5 ml”
Samples of batches of LOU064 drug substance were prepared in duplicated in closed container, with one sample being purged with nitrogen and the other not.
as §3

[6] = test system: Salmonella typhimurium strain TA98; assay: Enhanced Ames Test (EAT), strain TA98; details: TA98, presence of hamster S-9
Description: (§4) N-(3-(6-amino-5-(2(methyl)(nitroso)amino)ethoxy)pyrimidin-4-yl)-5-fluoro-2-methylphenyl)-4-cyclopropyl-2-fluorobenzamide was evaluated in the EAT performed under GLP following the EMA and FDA guidance (2023) for the EAT conditions for N-nitrosamines.
(§5) In this study N-(3-(6-amino-5-(2(methyl)(nitroso)amino)ethoxy)pyrimidin-4-yl)-5-fluoro-2-methylphenyl)-4-cyclopropyl-2-fluorobenzamide was evaluated for mutations in Salmonella typhimurium strains TA98, TA100, TA1535 and TA1537 and Escherichia coli strain WP2 uvrA pKM101, both in the absence and presence of 30% rat and hamster metabolic activation (β-naphthoflavone/phenobarbital-induced rat and hamster liver post-mitochondrial S-9 fraction). The test used pre-incubation method (30 minutes). N-(3-(6-amino-5-(2(methyl)(nitroso)amino)ethoxy)pyrimidin-4-yl)-5-fluoro-2-methylphenyl)-4-cyclopropyl-2-fluorobenzamide was formulated in dimethyl sulfoxide (DMSO) at concentrations of 5, 16, 50, 160, 500, 1600 and 5000 μg/plate.
(§6) Following the recommendations of the EAT, in addition to the concurrent strain-specific positive controls, two nitrosamine positive controls, i.e. N-nitrosodiethylamine (NDEA) and N-methyl-N-nitroso-(2-phenylethyl)amine (MNPA) were used that are known to be mutagenic in the presence of S-9.

[7] = test system: Salmonella typhimurium strain TA100; assay: Enhanced Ames Test (EAT), strain TA100
Description: as §4, §5, §6

[8] = test system: Salmonella typhimurium strains TA98, TA100, TA1535 and TA1537 and Escherichia coli strain WP2 uvrA pKM101; assay: Enhanced Ames Test (EAT), all tester strains; format: cell-based
Description: The test used pre-incubation method (30 minutes).

[9] = Formulation analyses of EAT dosing formulations in DMSO; format: physicochemical; details: 6 hrs at room temperature
[10] = test system: Salmonella typhimurium strain TA1535; assay: Enhanced Ames Test (EAT), strain TA1535; details: TA1535, presence of hamster S-9
Description: as §4, §5, §6

- growth of nitrosamine-content upon storage ([1]; 30° C./65% RH): > 100%
- growth of nitrosamine-content upon storage ([1]; 40° C./75% RH): > 100%
- change of nitrosamine-content upon storage ([1]; cold (5° C.)): only a minor rise
- change of nitrosamine-content upon storage ([1]; frozen (−20° C.)): no increase
- Nitrosamine content in F8 ([1]; 12 months, 5° C.): 323 ppb
- Nitrosamine content in F8 ([1]; 12 months, 30° C., 65% RH): 595 ppb
- Nitrosamine content in F8 ([1]; 12 months, 40° C., 75% RH): 647 ppb
- Nitrosamine content in F8 ([1]; 12 months, −20° C.): 276 ppb
- Nitrosamine content in F8 ([1]; T0): 300 ppb
- formation of nitrosamine upon storage ([2]; open vial): rapid increase
- Nitrosamine in F8 ([3]; Analyzed after 52 h air exp.): 533 ppb
- Nitrosamine in F8 ([3]; Analyzed directly after weighting the sample): 86 ppb
Compound: CNCCOc1c(N)ncnc1-c1cc(F)cc(NC(=O)c2ccc(C3CC3)cc2F)c1C [F8]
- effect of exposure to light on nitrosamine formation ([2]; light exposed vs dark): slightly accelerate conversion of F8 into nitrosamine
- formation of nitrosamine upon storage ([2]; stored under inert gas): only a minor, yet constant formation of nitrosamine

- stability behavior of the nitrosamine impurity ([4]; all APS open dish conditions): stable
- Nitrosamine impurity ([4]; 50° C., 75% RH, 14 days): 74.9 ppb
- Nitrosamine impurity ([4]; 50° C., 75% RH, 21 days): 75.8 ppb
- Nitrosamine impurity ([4]; 50° C., 75% RH, 28 days): 106.5 ppb and 106.8 ppb
- Nitrosamine impurity ([4]; 60° C., 11% RH, 21 days): 87.1 ppb
- Nitrosamine impurity ([4]; 60° C., 11% RH, 28 days): 113.5 ppb
- Nitrosamine impurity ([4]; 60° C., 50% RH, 14 days): 77.0 ppb
- Nitrosamine impurity ([4]; 60° C., 50% RH, 28 days): 106.6 ppb
- Nitrosamine impurity ([4]; 60° C., 75% RH, 14 days): 69.8 ppb
- Nitrosamine impurity ([4]; 60° C., 75% RH, 21 days): 82.7 ppb
- Nitrosamine impurity ([4]; 60° C., 75% RH, 28 days): 119.1 ppb
- Nitrosamine impurity ([4]; 70° C., 31% RH, 14 days): 77.9 ppb
- Nitrosamine impurity ([4]; 70° C., 31% RH, 28 days): 113.3 ppb
- Nitrosamine impurity ([4]; 70° C., 50% RH, 21 days): 83.2 ppb
- Nitrosamine impurity ([4]; 70° C., 50% RH, 28 days): 108.3 ppb
- Nitrosamine impurity ([4]; 70° C., 75% RH, 14 days): 82.6 ppb
- Nitrosamine impurity ([4]; 70° C., 75% RH, 21 days): 83.2 ppb
- Nitrosamine impurity ([4]; 80° C., 51% RH, 7 days): 105.3 ppb
- Nitrosamine impurity ([4]; 80° C., 51% RH, 21 days): 75.5 ppb
- Nitrosamine impurity ([4]; initial, 0 days): 99.1 ppb
- Nitrosamine without Nitrogen purge ([5]; 60° C., 21 days): 72.5 ppb
- nitrosamine with Nitrogen purge ([5]; 60° C., 21 days): 86.5 ppb
- Nitrosamine without Nitrogen purge ([5]; 60° C., 27 days): 109.8 ppb
- nitrosamine with Nitrogen purge ([5]; 60° C., 27 days): 110.4 ppb
- Nitrosamine without Nitrogen purge ([5]; 70° C., 21 days): 67.0 ppb
- nitrosamine with Nitrogen purge ([5]; 70° C., 21 days): 76.6 ppb
- Nitrosamine without Nitrogen purge ([5]; 70° C., 27 days): 116.0 ppb
- nitrosamine with Nitrogen purge ([5]; 70° C., 27 days): 109.4 ppb
- Nitrosamine without Nitrogen purge ([5]; 80° C., 21 days): 59.6 ppb
- nitrosamine with Nitrogen purge ([5]; 80° C., 21 days): 54.8 ppb
- Nitrosamine without Nitrogen purge ([5]; 80° C., 27 days): 114.7 ppb
- nitrosamine with Nitrogen purge ([5]; 80° C., 27 days): 119.2 ppb
- Nitrosamine without Nitrogen purge ([5]; initial, 0 days): 99.1 ppb
- nitrosamine with Nitrogen purge ([5]; initial, 0 days): 99.1 ppb
Compound: C=CC(=O)N(C)CCOc1c(N)ncnc1-c1cc(F)cc(NC(=O)c2ccc(C3CC3)cc2F)c1C [LOU064 drug substance, N-(3-(6-Amino-5-(2-(N-methylacrylamido)ethoxy)pyrimidin-4-yl)-5-fluoro-2-methylphenyl)-4-cyclopropyl-2-fluorobenzamide]
- nitrosamine, stored closed under nitrogen versus closed without nitrogen ([5]; 60-80° C., up to 27 days): no difference observed beyond analytical variability

Compound: CN(CCc1ccccc1)N=O [MNPA, N-methyl-N-nitroso-(2-phenylethyl)amine]
- increase in revertant numbers [6]: up to 1.9 fold

Compound: Cc1c(NC(=O)c2ccc(C3CC3)cc2F)cc(F)cc1-c1ncnc(N)c1OCCN(C)N=O [N-(3-(6-amino-5-(2(methyl)(nitroso)amino)ethoxy)pyrimidin-4-yl)-5-fluoro-2-methylphenyl)-4-cyclopropyl-2-fluorobenzamide]
- increase in revertant numbers ([7]; TA100, presence of hamster S-9): ≥ 2 fold
- mutagenicity in the presence of rat S-9 ([8]; 30% rat S-9): not mutagenic
- Enhanced Ames Test (EAT) result ([8]; GLP, EMA and FDA guidance (2023) EAT conditions for N-nitrosamines, pre-incubation 30 minutes, 5-5000 μg/plate): positive; also recorded: mutagenic under sensitive metabolic conditions
- mutagenicity without metabolic activation ([8]; absence of S-9): not mutagenic
- Precipitation observed at ([8]; all tester strains, absence and presence of S-9, formulated in DMSO): 1600 μg/plate and/or 5000 μg/plate
- stability and homogenicity in the formulations [9]: demonstrated stability and homogenicity
- increase in revertant numbers [10]: ≥ 3 fold

Compound: CCN(CC)N=O [NDEA, N-nitrosodiethylamine, reference compound]
- increase in revertant numbers ([7]; TA100, presence of 30% rat S-9): > 2 fold
